According to ChEMBL document CHEMBL1151840, “Synthetic oligoribonucleotides containing arabinonucleotides act as agonists of TLR7 and 8” (Bioorg Med Chem Lett, 2009):
Activity calls are given as the source filed them. The calls are words filed in the database; no cut-off is given here.

Experiments:
[1] = system: PBMC; experiment: Stimulation of immune response in human PBMC assessed as induction of MIP1alpha production at 150 ug/ml after 24 hrs; type: functional, cell-based
[2] = system: PBMC; experiment: Stimulation of immune response in human PBMC assessed as induction of IL10 production at 150 ug/ml after 24 hrs; type: functional, cell-based
[3] = system: PBMC; experiment: Stimulation of immune response in human PBMC assessed as induction of MCP1 production at 150 ug/ml after 24 hrs; type: functional, cell-based
[4] = system: PBMC; experiment: Stimulation of immune response in human PBMC assessed as induction of IFNalpha production at 150 ug/ml after 24 hrs; type: functional, cell-based
[5] = species: Homo sapiens; experiment: Stimulation of immune response in human pDC assessed as induction of IFN-gamma production at 150 ug/ml after 24 hrs; type: functional
[6] = molecular target: T1, Toll-like receptor 7 (Homo sapiens) (UniProt Q9NYK1); experiment: Agonist activity at human TLR7 expressed in HEK293XL cells assessed as NF-kappaB activation at 300 ug/ml after 18 hrs; type: functional, cell-based
T1 sequence (whole entry): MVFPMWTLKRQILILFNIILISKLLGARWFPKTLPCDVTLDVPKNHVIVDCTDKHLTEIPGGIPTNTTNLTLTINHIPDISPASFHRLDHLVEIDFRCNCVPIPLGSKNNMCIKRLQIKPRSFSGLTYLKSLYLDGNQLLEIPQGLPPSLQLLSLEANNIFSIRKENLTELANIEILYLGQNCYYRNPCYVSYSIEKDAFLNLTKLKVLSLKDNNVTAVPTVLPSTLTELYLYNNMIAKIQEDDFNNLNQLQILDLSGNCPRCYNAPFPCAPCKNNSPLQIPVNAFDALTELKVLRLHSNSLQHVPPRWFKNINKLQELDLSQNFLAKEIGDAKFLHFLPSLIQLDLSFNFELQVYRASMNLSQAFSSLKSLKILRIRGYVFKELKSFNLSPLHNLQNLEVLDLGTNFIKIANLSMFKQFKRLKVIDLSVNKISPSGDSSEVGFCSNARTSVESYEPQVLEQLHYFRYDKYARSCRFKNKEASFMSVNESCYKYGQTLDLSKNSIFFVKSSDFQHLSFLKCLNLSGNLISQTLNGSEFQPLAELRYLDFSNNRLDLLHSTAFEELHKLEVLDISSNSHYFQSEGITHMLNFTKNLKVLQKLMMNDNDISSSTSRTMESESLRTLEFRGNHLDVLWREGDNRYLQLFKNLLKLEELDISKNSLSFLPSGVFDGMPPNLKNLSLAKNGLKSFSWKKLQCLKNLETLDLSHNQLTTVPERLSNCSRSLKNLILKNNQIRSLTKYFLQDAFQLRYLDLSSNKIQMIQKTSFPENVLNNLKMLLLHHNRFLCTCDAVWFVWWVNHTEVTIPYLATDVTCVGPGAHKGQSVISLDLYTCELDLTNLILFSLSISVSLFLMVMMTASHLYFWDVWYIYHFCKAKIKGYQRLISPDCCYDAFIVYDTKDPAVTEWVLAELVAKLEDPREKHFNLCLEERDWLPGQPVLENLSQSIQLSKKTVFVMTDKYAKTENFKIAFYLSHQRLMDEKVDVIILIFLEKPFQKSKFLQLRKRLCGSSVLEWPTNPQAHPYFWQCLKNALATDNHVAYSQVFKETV

[7] = system: PBMC; experiment: Stimulation of immune response in human PBMC assessed as induction of IL1-beta production at 150 ug/ml after 24 hrs; type: functional, cell-based
[8] = system: PBMC; experiment: Stimulation of immune response in human PBMC assessed as induction of IFN-gamma production at 150 ug/ml after 24 hrs; type: functional, cell-based
[9] = species: Homo sapiens; experiment: Stimulation of immune response in human pDC assessed as induction of TNFalpha production at 150 ug/ml after 24 hrs; type: functional
[10] = species: Homo sapiens; experiment: Stimulation of immune response in human pDC assessed as induction of MIP1alpha production at 150 ug/ml after 24 hrs; type: functional
[11] = system: PBMC; experiment: Stimulation of immune response in human PBMC assessed as induction of RANTES production at 150 ug/ml after 24 hrs; type: functional, cell-based
[12] = system: PBMC; experiment: Stimulation of immune response in human PBMC assessed as induction of TNFalpha production at 150 ug/ml after 24 hrs; type: functional, cell-based
[13] = species: Homo sapiens; experiment: Stimulation of immune response in human pDC assessed as induction of MIP1beta production at 150 ug/ml after 24 hrs; type: functional
[14] = molecular target: T2, Toll-like receptor 8 (Homo sapiens) (UniProt Q9NR97); experiment: Agonist activity at human TLR8 expressed in HEK293XL cells assessed as NF-kappaB activation after 18 hrs; type: functional, cell-based
T2 sequence (whole entry): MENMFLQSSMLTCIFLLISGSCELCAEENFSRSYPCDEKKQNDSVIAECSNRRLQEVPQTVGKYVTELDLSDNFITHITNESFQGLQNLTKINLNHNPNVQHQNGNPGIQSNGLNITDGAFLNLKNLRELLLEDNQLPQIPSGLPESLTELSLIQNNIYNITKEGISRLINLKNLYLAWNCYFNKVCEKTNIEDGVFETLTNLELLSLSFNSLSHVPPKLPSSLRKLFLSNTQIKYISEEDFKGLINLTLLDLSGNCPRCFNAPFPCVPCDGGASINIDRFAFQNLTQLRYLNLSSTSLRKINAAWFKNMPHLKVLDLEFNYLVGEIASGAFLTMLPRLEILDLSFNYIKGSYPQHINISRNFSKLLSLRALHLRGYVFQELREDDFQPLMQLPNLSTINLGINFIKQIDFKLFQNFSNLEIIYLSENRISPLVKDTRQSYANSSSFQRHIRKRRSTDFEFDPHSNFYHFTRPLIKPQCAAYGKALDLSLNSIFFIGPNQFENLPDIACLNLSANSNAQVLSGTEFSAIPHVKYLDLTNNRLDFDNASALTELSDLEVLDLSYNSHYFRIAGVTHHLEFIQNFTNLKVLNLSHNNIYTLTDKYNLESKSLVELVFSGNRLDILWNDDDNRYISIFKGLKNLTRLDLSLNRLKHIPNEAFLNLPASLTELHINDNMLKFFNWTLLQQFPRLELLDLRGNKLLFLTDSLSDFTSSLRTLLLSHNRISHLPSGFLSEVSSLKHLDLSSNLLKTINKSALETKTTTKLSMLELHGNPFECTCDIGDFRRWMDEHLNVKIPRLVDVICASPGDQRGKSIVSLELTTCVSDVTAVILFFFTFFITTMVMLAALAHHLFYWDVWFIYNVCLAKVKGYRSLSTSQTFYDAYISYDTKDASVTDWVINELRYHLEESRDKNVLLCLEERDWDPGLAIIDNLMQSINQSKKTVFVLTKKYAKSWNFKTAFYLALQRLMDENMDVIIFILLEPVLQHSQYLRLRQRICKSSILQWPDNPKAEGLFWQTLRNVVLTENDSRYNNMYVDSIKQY

[15] = system: Mus musculus; experiment: Stimulation of immune response in C57BL/6 mouse assessed as induction of serum IL12 production at 50 mg/kg, sc after 2 hrs by luminex multiplex assay; type: functional, organism-based; parameters: dose 50 mg/kg
[16] = system: PBMC; experiment: Stimulation of immune response in human PBMC assessed as induction of IL2R level at 150 ug/ml after 24 hrs; type: functional, cell-based
[17] = species: Homo sapiens; experiment: Stimulation of immune response in human pDC assessed as induction of IFNalpha production at 150 ug/ml after 24 hrs; type: functional
[18] = system: PBMC; experiment: Stimulation of immune response in human PBMC assessed as induction of MIP1beta production at 150 ug/ml after 24 hrs; type: functional, cell-based
[19] = Stability in human serum assessed as full-length compound remaining after 10 mins by anion-exchange HPLC; type: ADME, cell-free; conditions: read-out: Stability
[20] = system: PBMC; experiment: Stimulation of immune response in human PBMC assessed as induction of IL12 production at 150 ug/ml after 24 hrs; type: functional, cell-based
[21] = species: Homo sapiens; experiment: Stimulation of immune response in human pDC assessed as induction of IL12 production at 150 ug/ml after 24 hrs; type: functional
[22] = system: PBMC; experiment: Stimulation of immune response in human PBMC assessed as induction of IL8 production at 150 ug/ml after 24 hrs; type: functional, cell-based

Nc1ccn([C@@H]2O[C@H](COP(=O)(S)O[C@H]3[C@@H](O)[C@H](n4ccc(=O)[nH]c4=O)O[C@@H]3COP(=O)(S)O[C@H]3[C@@H](O)[C@H](n4ccc(=O)[nH]c4=O)O[C@@H]3COP(=O)(S)O[C@H]3[C@@H](O)[C@H](n4cnc5c(=O)[nH]c(N)nc54)O[C@@H]3COP(=O)(S)O[C@H]3[C@@H](O)[C@H](n4ccc(=O)[nH]c4=O)O[C@@H]3COP(=O)(S)O[C@H]3[C@@H](O)[C@H](n4cnc5c(=O)[nH]c(N)nc54)O[C@@H]3COP(=O)(S)OCC(O)COP(=O)(S)O[C@H]3[C@@H](O)[C@H](n4cnc5c(=O)[nH]c(N)nc54)O[C@@H]3COP(=O)(S)O[C@H]3[C@@H](O)[C@H](n4ccc(=O)[nH]c4=O)O[C@@H]3COP(=O)(S)O[C@H]3[C@@H](O)[C@H](n4cnc5c(=O)[nH]c(N)nc54)O[C@@H]3COP(=O)(S)O[C@H]3[C@@H](O)[C@H](n4ccc(=O)[nH]c4=O)O[C@@H]3COP(=O)(S)O[C@H]3[C@@H](O)[C@H](n4ccc(=O)[nH]c4=O)O[C@@H]3COP(=O)(S)O[C@H]3[C@@H](O)[C@H](n4ccc(N)nc4=O)O[C@@H]3COP(=O)(S)O[C@H]3[C@@H](O)[C@H](n4cnc5c(=O)[nH]c(N)nc54)O[C@@H]3COP(=O)(S)O[C@H]3[C@H](O)[C@H](n4ccc(=O)[nH]c4=O)O[C@@H]3COP(=O)(S)O[C@H]3[C@@H](O)[C@H](n4ccc(N)nc4=O)O[C@@H]3COP(=O)(S)O[C@H]3[C@@H](O)[C@H](n4cnc5c(=O)[nH]c(N)nc54)O[C@@H]3COP(=O)(S)O[C@H]3[C@H](O)[C@H](n4ccc(=O)[nH]c4=O)O[C@@H]3CO)[C@@H](OP(=O)(S)OC[C@H]3O[C@@H](n4cnc5c(=O)[nH]c(N)nc54)[C@H](O)[C@@H]3OP(=O)(S)OC[C@H]3O[C@@H](n4ccc(=O)[nH]c4=O)[C@@H](O)[C@@H]3OP(=O)(S)OC[C@H]3O[C@@H](n4ccc(N)nc4=O)[C@H](O)[C@@H]3OP(=O)(S)OC[C@H]3O[C@@H](n4cnc5c(=O)[nH]c(N)nc54)[C@H](O)[C@@H]3OP(=O)(S)OC[C@H]3O[C@@H](n4ccc(=O)[nH]c4=O)[C@@H](O)[C@@H]3OP(=O)(O)S)[C@H]2O)c(=O)n1 (some centres not stated)
Activity [1]: Active | Activity [2]: Active | Activity [3]: Active | Activity [4]: Active | Activity [5]: Active | Activity [6]: inactive | Activity [7]: Active | Activity [8]: Active | Activity [9]: Active | Activity [10]: Active | Activity [11]: Active | Activity [12]: Active | Activity [13]: Active | Activity [14]: Dose-dependent effect | Activity [15]: inactive | Activity [16]: Active | Activity [17]: inactive | Activity [18]: Active | remaining at 10 min [19]: 76% | Activity [20]: Active | Activity [21]: Active | Activity [22]: Active
